For this experiment, the target named is T1, Na^+ /H^+ exchanger (Rattus norvegicus, UniProt P26431).
T1 construct: endogenous in cells; host or cells: thymocytes freshly isolated from the thymus of a male SD rat
As to the kind of experiment: Inhibitory activity on Na^+ /H^+ exchange in cells (swelling of thymocytes in sodium propionate medium). The format is cell-based, rat (SD strain). As to conditions: apparent Ki from Lineweaver-Burk plot, sodium-propionate medium pH 6.8, rate of swelling, 3-5 concentrations. As to the method: [2] Inhibitory activity on Na^+ /H^+ exchange in cells
Procedure was carried out according to a similar manner to the method described in Enzymology 173 , 777 (1989).
One male SD strain rat weighing 250-300 g was sacrificed with the blow on the head. Then, the thymus was removed into ice-cold NaCl medium (140 mM sodium chloride, 1 mM potassium chloride, 1 mM calcium chloride, 1 mM magnesium chloride, 10 mM glucose and 20 mM N-2-hydroxyethylpiperazine-N'-2-ethanesulfonic acid (HEADS)--pH 7.3), cut in small fragments, and transferred to glass homogenizer. The cells were dissociated by gentle strokes, and the resulting suspension was filtrated through six layers of surgical gauze and the filtrate was centrifuged at 4° C. at 1000 g for 5 minutes. The pellet was resuspended in RPMI 1640 medium (pH 7.3) at room temperature to adjust final cell concentration (1×10^7 cells/ml).
This method detects the swelling that accompanies activation of Na^+ /H^+ exchanger in cells incubated with sodium propionate. Propionic acid rapidly penetrates through the membrane. […]
Cell sizing and counting were performed electrically with the Coulter Counter-Channelyzer (AT-II). […] Rate of Swelling (Δ volume/min.) was measured by using 3-5 concentrations of test compound. Then, apparent Ki value of test compound was calculated by using Line weaver-Burk plot.

Molecules are shown by their SMILES. Where a name gives a salt, the structure may show the parent alone.

Our source for the Ki values is US6017917A, “Guanidine derivatives” (Fujisawa Pharamceutical Co., Ltd., priority 1996, dated 2000).

T1 sequence (P26431 whole entry): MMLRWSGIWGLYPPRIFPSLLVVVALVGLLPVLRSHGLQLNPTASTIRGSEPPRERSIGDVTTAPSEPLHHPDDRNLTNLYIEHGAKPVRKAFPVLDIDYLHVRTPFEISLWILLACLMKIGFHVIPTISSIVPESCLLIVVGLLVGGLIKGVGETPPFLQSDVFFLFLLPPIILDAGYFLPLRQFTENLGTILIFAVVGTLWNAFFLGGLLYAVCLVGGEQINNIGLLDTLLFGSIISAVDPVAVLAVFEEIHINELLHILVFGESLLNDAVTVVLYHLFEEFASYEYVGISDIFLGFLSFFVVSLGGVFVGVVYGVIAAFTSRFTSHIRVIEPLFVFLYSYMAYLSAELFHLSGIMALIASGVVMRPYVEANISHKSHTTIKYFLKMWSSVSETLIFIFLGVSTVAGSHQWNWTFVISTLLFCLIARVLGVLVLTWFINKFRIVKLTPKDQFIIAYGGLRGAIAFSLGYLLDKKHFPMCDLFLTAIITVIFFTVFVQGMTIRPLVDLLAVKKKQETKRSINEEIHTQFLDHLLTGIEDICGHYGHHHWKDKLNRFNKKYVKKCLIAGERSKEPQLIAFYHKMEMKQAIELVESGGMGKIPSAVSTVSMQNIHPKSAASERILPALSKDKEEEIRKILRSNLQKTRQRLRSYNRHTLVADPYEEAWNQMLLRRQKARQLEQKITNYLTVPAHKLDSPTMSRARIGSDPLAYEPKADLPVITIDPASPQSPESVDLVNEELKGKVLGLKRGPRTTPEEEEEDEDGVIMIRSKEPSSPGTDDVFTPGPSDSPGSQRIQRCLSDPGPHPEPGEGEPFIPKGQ

With `NC(N)=NC(=O)c1cc(C(=O)NCCN2CCOCC2)cc(-c2cc(Cl)ccc2Cl)c1` [(a), [5-(2,5-dichlorophenyl)-3-[(2-morpholinoethyl)-carbamoyl]benzoyl]guanidine.dihydrochloride], the Ki was under 100 nM.
